Laboratory results reported in patent US20260232707A1, “METABOLIC INHIBITORS AND METHODS OF MAKING AND USING THEREOF” (UNIVERSITY OF MIAMI, priority 2023, published 2026).
“Also recorded” adds a separate entry of the source.

Legend:
[1] = Stability at different pH values by HPLC and LC-MS (Example 1); assay type: physicochemical; details: for degradation / stability at acidic pH: acidic pH (4.0); for stability in alkaline conditions: alkaline conditions (pH 9.5); for stability in alkaline conditions / hydrolysis in neutral conditions: DMF-water (2/1, v/v), room temperature; for hydrolysis in neutral conditions: neutral conditions (pH 7.4)
Protocol: FIGS. 2A-2B. Stability of Mito-SilylDCA at different pH values. Traces of HPLC plots of (FIG. 2A) Mito-SilylDCA and (FIG. 2B) Mito-DCA in solutions of different pH values along with plots of percent of the compound remained with time. A solution of Mito-SilylDCA or Mito-DCA in DMF-water (2/1, v/v) was incubated for different times (12 h, 24 h, and 48 h) at different pH environments (4.0, 7.4, and 9.5) at room temperature.
Stability of Mito-SilylDCA. A combination of HPLC and LC-MS analytical techniques were employed to understand the stability of Mito-SilylDCA in different physiological environments. A solution of Mito-SilylDCA or Mito-DCA in DMF-water (2/1, v/v) was incubated for 12, 24, and 48 h at different pH environments of 4.0, 7.4, and 9.5 at room temperature and the degradation behavior of the compounds was analyzed with HPLC and LC-MS (FIGS. 2A and 2B). […] After 12 h, more than 60% of compounds are decomposed at pH 7.4, which should be due to the hydrolysis of DCA and the silyl chain. […] Both Mito-DCA and Mito-SilylDCA were unstable in alkaline conditions and the compounds decomposed easily. […] The better stability of Mito-SilylDCA compared to Mito-DCA would be beneficial for the long-term storage and further application in biological environment.

[2] = system: 4T1 breast cancer cell line; assay: Seahorse glycostress assay (ECAR); assay type: cell-based, murine; details: 4T1 cells, 6 h; for glycolytic inhibitory properties compared to NaDCA: 200 μM vs NaDCA 600 μM; for glycolysis inhibition (ECAR): compared with control group
Text: FIGS. 3A-3C show cellular glycolysis inhibition by Mito-SilylDCA. Glycolytic inhibition efficacy of Mito-SilylDCA was investigated along with the components used for synthesizing Mito-SilylDCA. (FIG. 3A) Chemical structures of TPP-(CH2)5—COOH), methoxyl(octadecyldimethyl)silane, sodium dichloroacetate (NaDCA), Mito-DCA, and Mito-SilylDCA. (FIG. 3B) Extracellular acidification rate (ECAR) measured in 4T1, murine breast cancer cell line, upon treatment with the compounds mentioned in A. The cells were pre-treated with the test articles at the following concentration: TPP-(CH2)5—COOH (200 μM), methoxy (octadecyldimethyl)silane (200 μM), NaDCA (600 μM), Mito-DCA (200 μM), or Mito-Silyl-DCA (200 μM), for 6 h. Port injections for the seahorse glycostress assay included glucose (10 mM) in port A, oligomycin (1 μM) in port B, and 2-DG (50 mM) in port C. (FIG. 3C) Graphical representation quantifying the change in glycolysis, glycolytic capacity, and glycolytic reserve parameters upon treatment with test articles. The data in FIG. 3C was generated as an average from 3 independent biological replicates. The statistical significance between the treatment groups was measured by ordinary one-way analysis of variance (ANOVA) using multiple comparison.
Cellular glycolysis inhibition by Mito-SilylDCA. Glycolysis inhibitory efficacy of Mito-Silyl-DCA was investigated in 4T1 breast cancer cell line which is known to be aggressive and highly glycolytic in nature with an overexpression of PDK1.^6 The Seahorse glycostress assay was performed to understand the metabolic fluxes of glycolysis. The 4T1 cells grown in normoxia were treated with TPP-(CH2)5—COOH) (200 μM), methoxyl(octadecyldimethyl)silane (200 μM), NaDCA (600 μM), Mito-DCA (200 μM), or Mito-Silyl-DCA (200 μM) for 6 h followed by washing and returning the cells to a glucose-free medium (FIG. 3A). The extracellular acidification rate (ECAR) traces were then monitored in response to the sequential administration of glucose, oligomycin, and 2-deoxy-D-glucose (2-DG) to assess glycolysis, glycolytic capacity, and glycolytic reserve, respectively. […] The data shown here are average from three independent biological replicates.
Glycolysis inhibition in highly glycolytic cells. This example documented inhibition of glycolysis in 4T1 cells by Mito-SilylDCA using Seahorse glycostress assay (FIG. 3B). The Seahorse glycostress assay was performed to check the metabolic fluxes of glycolysis. 4T1 cells were treated with TPP-hexanoic acid (200 μM), methoxyl(octadecyldimethyl)silane (200 μM), sodium dichloroacetate (DCA) (600 μM), Mito-DCA (200 μM), or Mito-SilylDCA (200 μM) for 6 h followed by washout and returned to glycose-free medium. The extracellular acidification rate (ECAR) was monitored in response to the sequential administration of glucose, oligomycin, and 2-deoxy-D-glucose (2-DG) to assess glycolysis, glycolytic capacity, and glycolytic reserve, respectively (FIG. 3C).

[3] = Chemical stability at different pH by HPLC and LC-MS (Example 2); assay type: physicochemical; details: DMF/water (1/1, v/v), 24 h, pH 4.5, 5.5, 6.5, 7.4, 8.5, room temperature
Protocol: Stability of Mito-SilylDCA. With Mito-SilylDCA in hand, the chemical stability was checked to ensure the efficacy of drug in different physiological environments. A mixed solution of Mito-SilylDCA in DMF/water (1/1, v/v) was incubated for 24 h in different pH environment (4.5, 5.5, 6.5, 7.4, 8.5) at room temperature. Then the solutions were measured with HPLC and LC-MS to check the degradation behavior of the compounds.

[4] = mouse, in vivo
Protocol: Thus, the experiment investigated the efficacy of T-Mito-SilylDCA-NPs in an in vivo mouse model in combination with a cisplatin prodrug, Platin-M^20-21. […] Thus for this study, luciferase tagged MDA-MB-231BR^Luc cells in Balb/c nude mice were used. The experiment implanted MDA-MB-231BR^Luc cells in the right flank of N=7 female Balb/c nude mice (FIG. 5A). […] Once the tumors were established, these animals were treated with a combination of T-Platin-M-NP and T-Mito-SilylDCA-NP in a sequential manner to inhibit first OXPHOS with T-Platin-M-NP^20 and simultaneous inhibition of resulting glycolysis T-Mito-SilylDCA-NP. This study included two groups: Group 1, saline with n=3 animals and group 2, combination of T-Platin-M-NPs and T-Mito-SilylDCA-NPs with n=4 animals (FIG. 5A). The tumor bearing animals were treated with saline or combination therapeutics for 4 weeks following a biweekly treatment regimen which involved tail i.v injections of 10 mg/kg dose of T-Platin-M-NP with respect to Platin-M 24 h prior to 30 mg/kg dose of T-Mito-Silyl-DCA-NP with respect to Mito-SilylDCA. […] All the images were taken at the same aperture and field of view was kept at 22.4 cm. […]
The present study administered T-Mito-SilylDCA to mice via intravenous injection and quantified the accumulation of NPs using ICP-MS analyses.

Row | Compound | degradation / stability at acidic pH [1] | stability in alkaline conditions [1] | hydrolysis in neutral conditions [1] | glycolytic inhibitory properties compared to NaDCA [2] | glycolysis inhibition (ECAR) ([2]; 200 μM) | decomposition compared with Mito-DCA ([1]; acidic conditions (pH 4.0), period of 24 h) | chemical stability [3] | glycolysis inhibition capability compared to Mito-DCA ([2]; 200 μM) | accumulation in the tumor [4] | biodistribution: organs in which present [4]
1 | O=C(CCCCC[P+](c1ccccc1)(c1ccccc1)c1ccccc1)NC(COC(=O)C(Cl)Cl)(COC(=O)C(Cl)Cl)COC(=O)C(Cl)Cl [Mito-DCA, reference compound] | relatively slow degradation | unstable | hydrolyzed in a short time | significantly higher | significant glycolysis inhibition | – | – | – | – | –
2 | CCCCCCCCCCCCCCCCCC[Si](C)(C)OCC(COC(=O)C(Cl)Cl)(COC(=O)C(Cl)Cl)NC(=O)CCCCC[P+](c1ccccc1)(c1ccccc1)c1ccccc1 [Mito-SilylDCA] | relatively slow degradation; also recorded: most stable at an acidic pH | unstable | hydrolyzed in a short time | significantly higher | significant inhibition of glycolysis | slower than Mito-DCA | stable in neural and weak acidic conditions | not significantly decreased | a significant portion of Mito-SilylDCA accumulated in the tumor | liver, tumor mass, brain, kidney, and spleen
3 | O=C(O)CCCCC[P+](c1ccccc1)(c1ccccc1)c1ccccc1.[Br-] [TPP-(CH2)5—COOH), (5-carboxypentyl)triphenylphosphonium bromide, reference compound] | – | – | – | – | No detectable changes in glycolysis levels | – | – | – | – | –
4 | CCCCCCCCCCCCCCCCCC[Si](C)(C)OC [methoxyl(octadecyldimethyl)silane, reference compound] | – | – | – | – | No detectable changes in glycolysis levels | – | – | – | – | –
